IC50, AC50 and EC50 data for five molecules are collected here from ChEMBL document CHEMBL1201862, “PubChem BioAssay data set” (2004).

Calls of active or inactive are those of the source. A value given as a limit tells only on which side of the number the result lay.

Experiment [1] deals with T1, Eukaryotic translation initiation factor 4H (Homo sapiens, UniProt Q15056). Put plainly: human eIF4H binding inhibitors, primary screen, translation initiation inhibitor project, biochemical, uHTS, fluorescence polarization (AID 2012). (Polarisation of emitted light reports the rotation of a fluorescent probe.)
The target in the next experiment is Estrogen receptor beta (Homo sapiens, UniProt Q92731).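 Further: recombinant ER-beta bound to coactivator SRC1 peptide in presence of estradiol agonist; inhibitors block coactivator peptide binding and lower the FRET signal.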
Experiment [2] concerns the target T2, Polyadenylate-binding protein 1 (Homo sapiens, UniProt P11940). Put plainly: PABP poly(A) RNA binding inhibitors, primary screen, biochemical, fluorescence polarization, uHTS (AID 2014).
Experiment [3] deals with T1, Eukaryotic translation initiation factor 4H. Put plainly: eIF4H inhibition in translation initiation, SAR follow-up (AID 435011). The class given is functional.
The target of experiment [4] is T2, Polyadenylate-binding protein 1. Nature of the experiment: PABP inhibition in translation initiation, SAR follow-up (AID 435018). The class given is functional.
Experiment [5] has the same target. Put plainly: SAR analysis for the identification of translation initiation inhibitors (PABP) via an Electrophoretic Mobility Shift Dose Response Assay. [Related pubchem assays (depositor defined):AID2012, AID2014, AID2030]. It is filed as functional.
In experiment [6] the target is Lysine-specific demethylase 4A (Homo sapiens, UniProt O75164). Nature of the experiment: JMJD2A histone demethylase inhibitors, dose response, selectivity assay for GASC-1 inhibitor project, biochemical, DELFIA europium, cherry-picked samples (AID 488840).
Experiment [7] has as its target Lysine-specific demethylase 4C (Homo sapiens, UniProt Q9H3R0). Put plainly: GASC-1 (JMJD2C) histone demethylase inhibitors, dose response, biochemical, DELFIA europium, cherry-picked samples (AID 488835). The class given is functional.
For another experiment, the target named is Trypsin (Sus scrofa, UniProt P00761). Nature of the experiment: porcine trypsin inhibitors, dose response, selectivity assay for Rce1 protease inhibitor project, biochemical, quenched peptide fluorescence, cherry-pick (AID 488789).
Another experiment concerns the target CAAX prenyl protease 1 (Saccharomyces cerevisiae S288c, UniProt P47154). Put plainly: Ste24 protease inhibitors, dose response, biochemical, S. cerevisiae, plate reader, cherry-pick (AID 488815).
For the next experiment, the target named is Cytochrome P450 2D6 (Homo sapiens, UniProt P10635).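 Further: CYP2D6 member of a cytochrome P450 panel assay.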
Experiment [8] has as its target T3, Runt-related transcription factor 1/Core-binding factor subunit beta (Homo sapiens, UniProt Q01196+Q13951). Put plainly: inhibitors of RUNX1 Runt–CBFb-SMMHC binding, primary screen, biochemical, FRET, Cerulean-Runt, Venus-CBFb-SMMHC, uHTS (AID 1434).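 Further: partner is the CBFb-SMMHC leukemia fusion protein rather than wild-type CBFb.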 It is filed as protein assay.
For experiment [9], the target named is T4, SUMO-activating enzyme (Homo sapiens, UniProt Q9UBT2). Nature of the experiment: SUMOylation inhibitor hit validation, confirmation, SUMOylation inhibitor project, biochemical, AlphaScreen (AID 2018). The class given is functional. Background: Bead proximity is the source of the signal in Alpha formats.
Experiment [10] addresses T3, Runt-related transcription factor 1/Core-binding factor subunit beta. Put plainly: inhibitors of RUNX1 Runt–CBFb-SMMHC binding, biochemical, TR-FRET (AID 1438). The class given is protein assay. For orientation: In TR-FRET formats the signal depends on donor and acceptor labels being close together.
In experiment [11] the target is T4, SUMO-activating enzyme. Nature of the experiment: inhibitors of in vitro SUMOylation cascade, primary screen, biochemical, HTRF, uHTS (AID 2006). It is filed as protein-complex assay.
Experiment [12] addresses T5, Corticotropin-releasing factor receptor 2/Corticotropin-releasing factor-binding protein (Homo sapiens, UniProt P24387+Q13324).
T5 sequence (Q13324 whole entry): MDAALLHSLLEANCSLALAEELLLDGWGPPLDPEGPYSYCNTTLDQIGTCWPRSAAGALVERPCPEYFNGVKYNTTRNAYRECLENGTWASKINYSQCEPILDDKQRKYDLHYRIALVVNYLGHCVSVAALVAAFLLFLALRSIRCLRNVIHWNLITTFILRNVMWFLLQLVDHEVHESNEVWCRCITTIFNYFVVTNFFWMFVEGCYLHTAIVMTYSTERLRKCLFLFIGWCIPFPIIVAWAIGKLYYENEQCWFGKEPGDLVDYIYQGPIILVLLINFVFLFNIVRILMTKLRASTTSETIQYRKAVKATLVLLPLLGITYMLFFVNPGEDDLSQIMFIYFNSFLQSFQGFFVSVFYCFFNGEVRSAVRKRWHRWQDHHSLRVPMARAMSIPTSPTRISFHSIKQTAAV
T5 sequence (P24387 whole entry): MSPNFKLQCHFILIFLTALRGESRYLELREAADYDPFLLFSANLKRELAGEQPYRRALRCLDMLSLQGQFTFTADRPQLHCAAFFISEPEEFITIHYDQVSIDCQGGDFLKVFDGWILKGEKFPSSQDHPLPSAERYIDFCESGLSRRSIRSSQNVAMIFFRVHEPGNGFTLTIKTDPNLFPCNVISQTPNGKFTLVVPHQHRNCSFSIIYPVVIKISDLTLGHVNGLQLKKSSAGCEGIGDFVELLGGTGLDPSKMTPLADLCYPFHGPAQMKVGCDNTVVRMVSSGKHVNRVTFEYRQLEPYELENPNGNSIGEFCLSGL
Put plainly: activators of CRF receptor 2 with binding protein – uHTS hits, confirmation (AID 602473). It is filed as functional. The settings on record: read-out: EC50_Mean.

Experiment [13] deals with Intestinal-type alkaline phosphatase (Mus musculus, UniProt P24822). Nature of the experiment: PubChem AID 488874. The class given is functional.
The target in experiment [14] is T6, Intestinal-type alkaline phosphatase (Homo sapiens, UniProt P09923). Put plainly: human intestinal alkaline phosphatase activators, dose response, biochemical, luminescence, uHTS hits (AID 463120). The class given is functional.
Experiment [15] addresses T6, Intestinal-type alkaline phosphatase. Nature of the experiment: human IAP activators, dose response, biochemical, luminescent, uHTS hits, set 2 (AID 488817).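 Further: potency of activators that raise enzyme activity.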 It is filed as functional.
The target of experiment [16] is T7, Alkaline phosphatase, tissue-nonspecific isozyme (Homo sapiens, UniProt P05186).
T7 sequence (P05186 whole entry): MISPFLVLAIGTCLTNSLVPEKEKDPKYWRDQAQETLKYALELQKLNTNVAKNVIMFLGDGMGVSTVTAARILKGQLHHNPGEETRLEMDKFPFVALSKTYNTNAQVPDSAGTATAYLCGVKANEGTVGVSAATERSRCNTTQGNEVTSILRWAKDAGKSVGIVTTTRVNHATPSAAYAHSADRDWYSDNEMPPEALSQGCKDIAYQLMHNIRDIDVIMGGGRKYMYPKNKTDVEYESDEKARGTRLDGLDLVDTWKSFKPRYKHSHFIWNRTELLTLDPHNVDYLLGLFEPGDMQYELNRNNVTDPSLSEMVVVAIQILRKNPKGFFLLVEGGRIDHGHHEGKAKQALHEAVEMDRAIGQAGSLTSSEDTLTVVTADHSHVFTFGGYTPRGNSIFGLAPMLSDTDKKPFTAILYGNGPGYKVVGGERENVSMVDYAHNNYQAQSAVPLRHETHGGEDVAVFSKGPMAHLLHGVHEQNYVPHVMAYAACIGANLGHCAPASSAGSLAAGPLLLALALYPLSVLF
Put plainly: TNAP enzyme activators, dose response, selectivity assay for human IAP activator project, biochemical, TNAP isozyme, human IAP uHTS hits (AID 488886).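 Further: potency of compounds raising TNAP activity as a selectivity check on IAP activators.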 It is filed as functional.

T2 sequence (P11940 whole entry): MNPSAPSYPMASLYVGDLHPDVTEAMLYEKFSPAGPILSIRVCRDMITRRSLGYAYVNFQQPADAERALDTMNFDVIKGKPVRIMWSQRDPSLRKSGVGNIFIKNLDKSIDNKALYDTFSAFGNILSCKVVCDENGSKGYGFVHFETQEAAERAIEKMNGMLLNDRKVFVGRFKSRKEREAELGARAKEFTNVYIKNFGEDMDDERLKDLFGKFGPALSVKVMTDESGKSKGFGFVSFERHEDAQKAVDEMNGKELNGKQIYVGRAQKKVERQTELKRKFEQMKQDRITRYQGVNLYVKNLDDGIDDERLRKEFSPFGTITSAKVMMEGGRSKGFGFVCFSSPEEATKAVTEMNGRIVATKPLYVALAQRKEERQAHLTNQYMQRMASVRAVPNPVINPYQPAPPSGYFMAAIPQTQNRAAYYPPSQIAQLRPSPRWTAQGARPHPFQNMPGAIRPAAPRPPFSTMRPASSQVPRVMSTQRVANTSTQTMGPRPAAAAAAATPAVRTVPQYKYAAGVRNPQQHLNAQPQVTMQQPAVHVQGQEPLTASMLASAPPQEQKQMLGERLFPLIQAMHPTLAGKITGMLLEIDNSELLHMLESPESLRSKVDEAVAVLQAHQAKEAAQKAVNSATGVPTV
T3 sequence (Q01196 whole entry, the tested form may be a part): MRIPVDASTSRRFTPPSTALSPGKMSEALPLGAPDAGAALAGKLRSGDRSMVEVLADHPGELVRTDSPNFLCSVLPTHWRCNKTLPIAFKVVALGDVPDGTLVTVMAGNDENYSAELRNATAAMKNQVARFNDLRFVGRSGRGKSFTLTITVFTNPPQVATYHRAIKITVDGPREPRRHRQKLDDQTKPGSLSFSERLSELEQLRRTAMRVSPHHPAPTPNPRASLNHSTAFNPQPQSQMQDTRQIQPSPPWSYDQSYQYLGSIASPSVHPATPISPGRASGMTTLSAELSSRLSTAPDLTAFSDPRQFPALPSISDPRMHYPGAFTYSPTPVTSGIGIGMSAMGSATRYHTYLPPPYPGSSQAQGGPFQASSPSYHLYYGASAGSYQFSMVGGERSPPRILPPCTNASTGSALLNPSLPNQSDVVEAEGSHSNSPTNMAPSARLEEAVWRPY
T3 sequence (Q13951 whole entry, the tested form may be a part): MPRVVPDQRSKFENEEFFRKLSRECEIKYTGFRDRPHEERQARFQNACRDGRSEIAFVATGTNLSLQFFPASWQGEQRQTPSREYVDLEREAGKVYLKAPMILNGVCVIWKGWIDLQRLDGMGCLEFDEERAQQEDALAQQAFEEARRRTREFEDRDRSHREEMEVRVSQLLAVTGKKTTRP
T6 sequence (P09923 whole entry): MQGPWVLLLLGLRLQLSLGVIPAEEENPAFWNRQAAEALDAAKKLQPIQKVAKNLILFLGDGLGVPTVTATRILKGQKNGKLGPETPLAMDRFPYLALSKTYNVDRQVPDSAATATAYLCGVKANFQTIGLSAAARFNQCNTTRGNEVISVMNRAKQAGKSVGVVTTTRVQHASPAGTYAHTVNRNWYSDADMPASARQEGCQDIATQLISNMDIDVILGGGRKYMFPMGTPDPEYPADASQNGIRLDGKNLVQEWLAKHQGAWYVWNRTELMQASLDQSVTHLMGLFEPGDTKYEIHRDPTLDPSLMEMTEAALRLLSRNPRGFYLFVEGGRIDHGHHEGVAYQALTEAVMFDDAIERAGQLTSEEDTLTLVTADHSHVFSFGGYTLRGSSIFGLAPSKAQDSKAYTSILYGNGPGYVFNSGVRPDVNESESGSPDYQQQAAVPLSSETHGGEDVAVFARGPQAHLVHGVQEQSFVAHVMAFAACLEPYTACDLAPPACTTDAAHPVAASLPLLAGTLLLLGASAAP
T4 sequence (Q9UBE0 whole entry): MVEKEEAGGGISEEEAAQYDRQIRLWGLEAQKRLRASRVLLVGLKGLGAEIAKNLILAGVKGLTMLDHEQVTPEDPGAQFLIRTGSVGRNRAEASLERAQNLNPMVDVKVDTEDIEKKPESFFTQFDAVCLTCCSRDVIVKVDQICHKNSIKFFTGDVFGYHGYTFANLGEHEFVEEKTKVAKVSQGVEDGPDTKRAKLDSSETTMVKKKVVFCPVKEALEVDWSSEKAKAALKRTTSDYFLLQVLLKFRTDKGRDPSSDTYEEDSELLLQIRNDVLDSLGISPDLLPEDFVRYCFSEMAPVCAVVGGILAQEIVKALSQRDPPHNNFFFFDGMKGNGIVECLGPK
T4 sequence (Q9UBT2 whole entry): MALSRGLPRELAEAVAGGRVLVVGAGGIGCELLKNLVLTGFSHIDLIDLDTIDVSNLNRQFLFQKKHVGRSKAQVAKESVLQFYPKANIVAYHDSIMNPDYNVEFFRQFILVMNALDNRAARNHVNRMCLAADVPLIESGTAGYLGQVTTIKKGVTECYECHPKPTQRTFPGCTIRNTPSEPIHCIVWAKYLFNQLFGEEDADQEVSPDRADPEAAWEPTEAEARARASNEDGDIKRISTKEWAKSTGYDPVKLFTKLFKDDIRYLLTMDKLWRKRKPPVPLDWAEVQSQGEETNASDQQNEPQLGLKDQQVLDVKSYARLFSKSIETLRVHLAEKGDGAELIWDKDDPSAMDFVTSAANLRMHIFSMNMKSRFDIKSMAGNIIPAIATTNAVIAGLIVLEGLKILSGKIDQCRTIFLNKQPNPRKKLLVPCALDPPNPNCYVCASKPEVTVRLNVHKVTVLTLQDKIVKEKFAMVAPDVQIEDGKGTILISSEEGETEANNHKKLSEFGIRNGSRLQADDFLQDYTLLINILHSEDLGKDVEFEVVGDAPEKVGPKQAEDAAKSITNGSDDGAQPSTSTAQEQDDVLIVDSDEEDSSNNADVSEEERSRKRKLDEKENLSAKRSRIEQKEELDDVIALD
Intestinal-type alkaline phosphatase (Mus musculus, UniProt P24822), sequence (P24822 whole entry): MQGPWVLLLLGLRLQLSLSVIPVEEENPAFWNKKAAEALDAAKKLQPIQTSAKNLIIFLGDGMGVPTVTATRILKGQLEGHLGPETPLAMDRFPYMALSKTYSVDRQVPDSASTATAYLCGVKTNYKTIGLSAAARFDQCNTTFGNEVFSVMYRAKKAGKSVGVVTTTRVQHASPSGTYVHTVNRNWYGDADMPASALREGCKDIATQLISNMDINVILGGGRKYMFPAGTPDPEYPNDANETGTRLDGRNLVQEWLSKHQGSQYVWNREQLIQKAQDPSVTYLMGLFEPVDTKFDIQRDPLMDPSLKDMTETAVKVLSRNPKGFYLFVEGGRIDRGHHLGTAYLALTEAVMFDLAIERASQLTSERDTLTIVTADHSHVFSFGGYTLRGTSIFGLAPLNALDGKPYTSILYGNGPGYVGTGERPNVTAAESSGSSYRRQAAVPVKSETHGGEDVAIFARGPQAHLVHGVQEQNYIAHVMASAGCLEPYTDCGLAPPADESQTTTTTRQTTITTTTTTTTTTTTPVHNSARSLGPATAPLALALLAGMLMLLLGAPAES
Lysine-specific demethylase 4C, sequence (Q9H3R0 whole entry): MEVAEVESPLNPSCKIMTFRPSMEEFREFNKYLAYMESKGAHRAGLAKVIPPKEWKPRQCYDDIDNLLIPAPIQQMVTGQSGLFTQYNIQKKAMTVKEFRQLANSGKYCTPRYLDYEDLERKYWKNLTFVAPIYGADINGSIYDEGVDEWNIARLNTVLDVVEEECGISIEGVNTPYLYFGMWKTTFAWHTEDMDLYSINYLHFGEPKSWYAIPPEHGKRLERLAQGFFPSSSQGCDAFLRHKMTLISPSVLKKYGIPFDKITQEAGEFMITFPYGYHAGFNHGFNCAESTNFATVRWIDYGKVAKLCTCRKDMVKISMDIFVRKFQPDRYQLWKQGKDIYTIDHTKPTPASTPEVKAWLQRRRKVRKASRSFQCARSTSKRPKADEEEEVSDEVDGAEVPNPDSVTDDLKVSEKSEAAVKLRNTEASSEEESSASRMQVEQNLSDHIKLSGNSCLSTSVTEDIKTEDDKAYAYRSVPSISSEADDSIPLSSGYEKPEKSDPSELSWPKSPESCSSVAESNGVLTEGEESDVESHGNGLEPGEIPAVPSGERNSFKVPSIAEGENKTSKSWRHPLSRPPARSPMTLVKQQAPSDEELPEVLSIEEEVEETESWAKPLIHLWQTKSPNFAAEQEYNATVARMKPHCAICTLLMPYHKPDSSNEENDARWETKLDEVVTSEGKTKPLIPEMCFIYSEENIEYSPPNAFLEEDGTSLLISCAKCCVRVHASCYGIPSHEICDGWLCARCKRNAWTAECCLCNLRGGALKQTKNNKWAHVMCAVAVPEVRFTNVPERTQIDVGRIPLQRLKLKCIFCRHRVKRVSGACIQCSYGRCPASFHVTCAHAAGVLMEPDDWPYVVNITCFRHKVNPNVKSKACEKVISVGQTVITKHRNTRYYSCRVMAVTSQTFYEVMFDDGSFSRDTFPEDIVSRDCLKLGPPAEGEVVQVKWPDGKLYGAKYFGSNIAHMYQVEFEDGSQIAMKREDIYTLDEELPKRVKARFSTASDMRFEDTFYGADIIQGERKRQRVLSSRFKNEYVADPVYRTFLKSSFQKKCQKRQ
Trypsin, sequence (P00761 whole entry): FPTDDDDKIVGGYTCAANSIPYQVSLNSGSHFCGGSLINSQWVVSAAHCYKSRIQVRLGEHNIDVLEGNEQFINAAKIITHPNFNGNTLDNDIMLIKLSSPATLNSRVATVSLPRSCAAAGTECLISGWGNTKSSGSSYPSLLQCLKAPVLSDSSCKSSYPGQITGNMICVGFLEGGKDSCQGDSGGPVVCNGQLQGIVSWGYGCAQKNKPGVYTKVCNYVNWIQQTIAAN

The IC50 is the concentration needed to halve the response being measured. As to `CCOC(=O)N1CCC(NC(=O)c2cccc3c2C(=O)N(c2ccc(OC)cc2)C3)CC1`, the half-maximal inhibitory concentration (IC50) in experiment [1] is 9.51 µM (active); against Estrogen receptor beta it was > 50 µM (not active); in [2], 76.2 µM (active); in experiment [3] it was 6.47 µM (active); in experiment [4], > 100 µM (inactive); in experiment [5], 10 µM (active).

As a reminder, the AC50 is the concentration giving half of the maximal activity seen. As for `CCCCn1c(-c2ccsc2)nc2c1c(=O)[nH]c(=O)n2CCC`, the figures for the concentration at half-maximal activity (AC50) in experiment [6] and in [7] were 12.2 µM (active) and 4.19 µM (active), respectively.

With `C=CCNc1oc(/C=C/c2ccccc2)nc1C#N`, the figures for the AC50 at Trypsin, on CAAX prenyl protease 1 and on Cytochrome P450 2D6 were 23.5 µM (active), 63.7 µM (active) and 20 µM (inconclusive), respectively.

Turning to `Cc1ccc(S(=O)(=O)c2cc3c(=O)n4ccccc4nc3n(Cc3ccco3)c2=N)cc1`, the IC50 in [8] is 5.08 µM (active); on SUMO-activating enzyme [9], 13.4 µM (active); in experiment [10], 58.6 µM (inactive); at SUMO-activating enzyme [11], 3.93 µM (active). Also, in experiment [12], the EC50 is > 53 µM (inactive).

With `CCOc1cc(/C=N/NC(=O)C(=O)N/N=C/c2ccc(O)c(OCC)c2)ccc1O`, the IC50 in experiment [13] was > 100 µM (inactive). Also, the figures for the EC50 in experiment [14], in [15] and in experiment [16] were 29.1 µM (active), 100 µM (inactive) and > 100 µM (inactive), respectively.
